# Square brackets hold non-standard residues; d marks the D form. Peptide text beside a SMILES is read from it. * marks the point of attachment. Heptadecanoyl = CCCCCCCCCCCCCCCCC(=O)*; Tridecanoyl = CCCCCCCCCCCCC(=O)*; hIle = CC[C@H](C)C[C@H](N)C(=O)O; Cha = N[C@@H](CC1CCCCC1)C(=O)O
# Key:
# Staphylococcus aureus [1] = assay: Antibacterial activity against Staphylococcus aureus ATCC 25923 assessed as reduction in bacterial growth incubated for 48 hrs by Mueller-Hinton broth based microdilution method; assay type: functional
# Escherichia coli [2] = assay: Antibacterial activity against Escherichia coli ATCC 25922 assessed as reduction in bacterial growth incubated for 48 hrs by Mueller-Hinton broth based microdilution method; assay type: functional
# [3] = Hemolytic activity in human erythrocyte incubated for 1 hr; assay type: toxicity, cell-based; details: erythrocytes
# [4] = Hemolytic activity in mouse RBC incubated for 1 hr; assay type: toxicity, cell-based, Erythrocyte; details: red blood cells
# [5] = Hemolytic activity in human RBC; assay type: toxicity, cell-based, Erythrocyte; details: red blood cells
# Staphylococcus aureus [6] = assay: Antimicrobial activity against Staphylococcus aureus ATCC 25923 assessed as reduction in microbial growth incubated for 18 to 20 hrs by Mueller-Hinton broth based microdilution method; assay type: functional; details: time 18-20 hrs
# Enterococcus faecium = assay: Antimicrobial activity against Enterococcus faecium assessed as reduction in microbial growth incubated for 18 to 20 hrs by Mueller-Hinton broth based microdilution method; assay type: functional; details: time 18-20 hrs
# Escherichia coli [7] = assay: Antibacterial activity against Escherichia coli ATCC 25922 assessed as bacterial growth inhibition incubate for 18 to 20 hrs by MH broth based assay; assay type: functional; details: time 18-20 hrs
# Bacillus subtilis [8] = assay: Antimicrobial activity against Bacillus subtilis ATCC 23857 assessed as reduction in microbial growth incubated for 18 to 20 hrs by Mueller-Hinton broth based microdilution method; assay type: functional; details: time 18-20 hrs
# [9] = system: Mycolicibacterium smegmatis; assay: Antimycobacterial activity against Mycobacterium smegmatis mc2 155 assessed as reduction in bacterial cell growth incubated for 48 hrs by resazurin dye based assay; assay type: functional
# Bacillus subtilis [10] = assay: Antibacterial activity against Bacillus subtilis assessed as reduction in bacterial growth; assay type: functional
# Escherichia coli [11] = assay: Antibacterial activity against Escherichia coli DH5a assessed as reduction in bacterial growth; assay type: functional
# Pseudomonas aeruginosa [12] = assay: Antibacterial activity against Pseudomonas aeruginosa PAO1 assessed as reduction in bacterial growth; assay type: functional
# Zymomonas mobilis = assay: Antibacterial activity against Zymomonas mobilis ATCC 10988 assessed as reduction in bacterial growth; assay type: functional
# [13] = Hemolytic activity in human erythrocytes; assay type: toxicity, cell-based, Erythrocyte
# [14] = Hemolytic activity against Red blood cells (unknown origin) incubated for 1 hr by spectrophotometric analysis; assay type: toxicity, cell-based, Erythrocyte
# Staphylococcus aureus [15] = assay: Antibacterial activity against Staphylococcus aureus assessed as bacterial growth inhibition incubated for 20 hrs by broth microdilution assay; assay type: functional
# Bacillus subtilis [16] = assay: Antibacterial activity against Bacillus subtilis assessed as reduction in bacterial growth incubated for 20 hrs by broth microdilution assay; assay type: functional
# Escherichia coli [17] = assay: Antibacterial activity against Escherichia coli assessed as reduction in bacterial growth incubated for 20 hrs by broth microdilution assay; assay type: functional
# Pseudomonas aeruginosa [18] = assay: Antibacterial activity against Pseudomonas aeruginosa assessed as reduction in bacterial growth incubated for 20 hrs by broth microdilution assay; assay type: functional
smiles,measurement,setting,value
CCCCCCCCCCCCCCCCC(=O)NCC(=O)N[C@@H](CC(C)C)C(=O)N[C@@H](CC(C)C)C(=O)N[C@@H](CCCCN)C(=O)N[C@@H](CCCNC(=N)N)C(=O)N[C@H](C(N)=O)[C@@H](C)CC (Heptadecanoyl-GLLKRI-NH2),MIC,Staphylococcus aureus [1],0.66 µM
same,MIC,Escherichia coli [2],3.47 µM
same,HC50 at 1 h,[3],8.01 µM
CC[C@H](C)C[C@H](NC(=O)[C@H](CCCNC(=N)N)NC(=O)[C@H](CCCCN)NC(=O)[C@H](CC(C)C)NC(=O)[C@H](CC1CCCCC1)NC(=O)CN)C(=O)N[C@@H](CCCCN)C(=O)N[C@H](C(=O)N[C@@H](CC(C)C)C(=O)N[C@@H](CC1CCCCC1)C(N)=O)[C@@H](C)O (H-G[Cha]LKR[hIle]KTL[Cha]-NH2),HC50 at 1 h,[4],31.2 µM
same,HC50,[5],31.2 µM
same,MIC,Staphylococcus aureus [6],5.3 µM
same,MIC,Enterococcus faecium,3.2 µM
same,MIC,Escherichia coli [7],6.25 µM
CC(C)C[C@H](NC(=O)[C@H](CC(C)C)NC(=O)[C@H](CCCCN)NC(=O)[C@H](CCCCN)NC(=O)[C@H](Cc1c[nH]c2ccccc12)NC(=O)[C@H](Cc1c[nH]c2ccccc12)NC(=O)[C@H](CCCCN)NC(=O)[C@H](CC(C)C)NC(=O)[C@H](CC(C)C)NC(=O)[C@@H](N)CCCCN)C(N)=O (H-KLLKWWKKLL-NH2),HC50 at 1 h,[4],> 200 µM
same,HC50,[5],> 200 µM
same,MIC,Staphylococcus aureus [6],16 µM
same,MIC,Enterococcus faecium,8 µM
same,MIC,Bacillus subtilis [8],8 µM
same,MIC,Escherichia coli [7],16 µM
CCCCCCCCCCCCC(=O)NCC(=O)N[C@@H](CC(C)C)C(=O)N[C@@H](CC(C)C)C(=O)N[C@@H](CCCCN)C(=O)N[C@@H](Cc1ccccc1)C(=O)N[C@H](C(=O)N[C@@H](CCCCN)C(=O)N[C@@H](CCCCN)C(=O)N[C@@H](CC(C)C)C(=O)N[C@@H](CC(C)C)C(N)=O)[C@@H](C)CC (Tridecanoyl-GLLKFIKKLL-NH2),MIC,[9],3.69 µM
same,MIC,Bacillus subtilis [10],8 µM
same,MIC,Escherichia coli [11],22.1 µM
same,MIC,Pseudomonas aeruginosa [12],3.69 µM
same,MIC,Zymomonas mobilis,22.1 µM
same,HC50,[13],< 370 µM
CCCCCCCCCCCCCCCCC(=O)NCC(=O)N[C@@H](CC(C)C)C(=O)N[C@@H](CC(C)C)C(=O)N[C@@H](CCCCN)C(=O)N[C@@H](CCCNC(=N)N)C(=O)N[C@H](C(=O)N[C@@H](CCCCN)C(=O)N[C@H](C(=O)N[C@@H](CC(C)C)C(=O)N[C@@H](CC(C)C)C(=O)O)[C@@H](C)O)[C@@H](C)CC (Heptadecanoyl-GLLKRIKTLL-OH),MIC,Staphylococcus aureus [1],0.32 µM
same,MIC,Escherichia coli [2],0.32 µM
same,HC50 at 1 h,[3],14.8 µM
CC[C@H](C)[C@H](NC(=O)[C@H](CCCCN)NC(=O)[C@H](CCCCN)NC(=O)[C@H](C)NC(=O)[C@H](CC(C)C)NC(=O)[C@H](C)NC(=O)[C@H](C)NC(=O)[C@H](CC(C)C)NC(=O)[C@H](C)NC(=O)[C@H](CCCCN)NC(=O)[C@H](CC(C)C)NC(=O)[C@H](CC(N)=O)NC(=O)[C@@H](NC(=O)[C@H](CC(C)C)NC(=O)[C@H](CC(C)C)NC(=O)[C@H](CC(C)C)NC(=O)[C@@H](NC(=O)[C@H](CCCCN)NC(=O)[C@@H](NC(=O)[C@H](CCCNC(=N)N)NC(=O)[C@H](CCCCN)NC(=O)[C@H](CC(C)C)NC(=O)[C@H](CC(C)C)NC(=O)CN)[C@@H](C)CC)[C@@H](C)O)[C@@H](C)CC)C(=O)N[C@@H](CC(C)C)C(N)=O (H-GLLKRIKTLLLINLKALAALAKKIL-NH2),HC50 at 1 h,[14],35.6 µM
same,MIC,Staphylococcus aureus [15],8 µM
same,MIC,Bacillus subtilis [16],8 µM
same,MIC,Escherichia coli [17],8 µM
same,MIC,Pseudomonas aeruginosa [18],16 µM
CCCCCCCCCCCCCCCCC(=O)NCC(=O)N[C@@H](CC(C)C)C(=O)N[C@@H](CC(C)C)C(=O)N[C@@H](CCCCN)C(=O)N[C@@H](CCCNC(=N)N)C(=O)N[C@H](C(=O)N[C@@H](CCCCN)C(=O)N[C@H](C(N)=O)[C@@H](C)O)[C@@H](C)CC (Heptadecanoyl-GLLKRIKT-NH2),MIC,Staphylococcus aureus [1],1.4 µM
same,MIC,Escherichia coli [2],2.8 µM
same,HC50 at 1 h,[3],29 µM

# Source: ChEMBL document CHEMBL5608163, “Structure modification of anoplin for fighting resistant bacteria” (Eur J Med Chem, 2024)
